Test results: PubChem BioAssay (NCI)
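Method: 48-hour compound exposure of cells in 96-well plates, five concentrations, linear interpolation of endpoints. The concentration for 50% growth inhibition is given as GI50. TGI denotes the concentration required for complete inhibition of growth.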

What was measured:
Assay in all cases: NCI tumour cell line growth inhibition, 48 h
CCRF-CEM leukemia = system: CCRF-CEM leukemia
SF-295 CNS = system: SF-295 CNS
IGROV1 ovarian = system: IGROV1 ovarian
NCI-H460 lung = system: NCI-H460 lung
OVCAR-3 ovarian = system: OVCAR-3 ovarian
MDA-MB-435 = system: MDA-MB-435
SF-268 CNS = system: SF-268 CNS
SK-MEL-5 melanoma = system: SK-MEL-5 melanoma
SR leukemia = system: SR leukemia
A549 NSCLC = system: A549 NSCLC

| SMILES | GI50 (CCRF-CEM leukemia) [µM] | TGI (CCRF-CEM leukemia) [µM] | GI50 (SF-295 CNS) [nM] | TGI (SF-295 CNS) [µM] | GI50 (IGROV1 ovarian) [µM] | TGI (IGROV1 ovarian) [µM] | GI50 (NCI-H460 lung) [µM] | TGI (NCI-H460 lung) [µM] | GI50 (OVCAR-3 ovarian) [µM] | TGI (OVCAR-3 ovarian) [µM] | GI50 (MDA-MB-435) [nM] | TGI (MDA-MB-435) [µM] | GI50 (SF-268 CNS) [µM] | TGI (SF-268 CNS) [µM] | GI50 (SK-MEL-5 melanoma) [µM] | TGI (SK-MEL-5 melanoma) [µM] | GI50 (SR leukemia) [nM] | TGI (SR leukemia) [µM] | GI50 (A549 NSCLC) [µM] | TGI (A549 NSCLC) [µM] |
| --- | --- | --- | --- | --- | --- | --- | --- | --- | --- | --- | --- | --- | --- | --- | --- | --- | --- | --- | --- | --- |
| CCn1nc(C#Cc2c(C)ccc3c(Nc4ccc(Cl)cc4)nccc23)c2c(N)ncnc21 | 3.31 | > 100 | 2480 | 11.6 | 3.09 | > 100 | 4.22 | > 100 | 3.46 | > 100 | 1080 | 4.57 | 5.36 | > 100 | 2.14 | 6.55 | 1010 | > 100 | 4.58 | > 100 |
| COc1cc(-c2nn(-c3cccc(NC(=O)NCCNC(=O)c4ccccc4)c3)cc2-c2ccncc2)ccc1Cl | 1.41 | > 100 | 1630 | 4.57 | 4.68 | > 100 | 3.56 | > 100 | 2.93 | > 100 | 2410 | 9.29 | 4.27 | > 100 | 1.55 | 4.06 | 2420 | > 100 | 4.57 | > 100 |
| Cc1ccccc1C1N=C2Oc3ccccc3C=C2C(=O)N1 (centres undefined) | 4.63 | > 100 | 1460 | > 25.9 | 9.85 | > 100 | 4.34 | > 100 | 0.621 | 2.69 | 244 | 0.824 | 9.2 | > 100 | 0.674 | > 100 | 14500 | > 88.3 | 3.55 | > 100 |
| CCN(CC)CCCC(C)Nc1ccnc2cc(OC)ccc12 (centres undefined) | 18.1 | 42.3 | 34300 | > 100 | 27.3 | 79.3 | > 100 | > 100 | 23.7 | 67.5 | 19900 | 40.5 | > 100 | > 100 | 18.3 | 32.8 | 24100 | > 100 | 18.3 | 35.5 |
| CNC(=S)N/N=C/CSC/C=N/NC(=S)NC | 24.7 | > 100 | > 100000 | > 100 |  | > 100 | > 100 | > 100 | > 56.9 | > 100 | > 100000 | > 100 | > 100 | > 100 | > 100 | > 100 | 799 | > 100 | > 100 | > 100 |
| CC(C)CC(=O)O[C@H]1C(=O)O[C@@H]2C[C@H]3[C@H](C)C(=O)C(O[C@@H]4O[C@H](CO)[C@@H](O)[C@H](O)[C@H]4O)=C[C@]3(C)[C@H]3[C@@H](O)[C@H](O)[C@]4(C(=O)O)OC[C@]32[C@@H]14 | 24.7 | 83.6 |  |  | 35.4 | > 100 | 27.5 | > 100 | 36.4 | > 100 |  | > 100 | > 100 | > 100 | 28.4 | > 100 | 33600 | > 100 | 42.1 | > 100 |
| CS(=O)c1cc(=O)c2ccccc2s1 (centres undefined) |  | 4.45 |  | 32.6 |  | 34.2 |  | 35 |  | 4.47 |  | 19 |  | 24.5 |  | 22.4 |  | 4.67 |  | 38.3 |
| CCc1ccc2cc3c(ccc4ccccc43)c3c2c1CC3 | > 100 | > 100 |  |  | > 100 | > 100 | > 100 | > 100 | > 100 | > 100 | > 100000 | > 100 | > 100 | > 100 | > 100 | > 100 | > 100000 | > 100 | > 100 | > 100 |
| COc1ccc(-c2cc(-c3ccc(Cl)cc3)c(C#N)c(=O)n2CCCCCC(=O)Nc2ccccc2N)cc1 | 4.84 | > 100 |  |  | 4.22 | > 100 | 3.42 | 27.2 | 5 | 25.3 | 3690 | 18.7 | 14.9 | > 100 | 1.93 | 3.73 | 2020 | > 100 | 4.06 | > 100 |
| CCN(CC)c1ccc(C=C2C(=O)NC(=S)NC2=O)cc1 | 2.12 | 6.89 | 6210 | 21.2 |  |  | 3.99 | 15.1 | 3.15 | 8.68 | 2310 | 7.1 | 3.83 | 13.7 | 9.25 | 21.5 | 1690 | 10.3 | 12.1 | 28 |
| O=C(N=Nc1c(O)[nH]c2c(Cl)cc(Cl)cc12)C(=O)Nc1cccc(C(F)(F)F)c1 |  | > 100 |  | > 100 |  | > 100 |  | > 100 |  | > 100 |  | > 100 |  |  |  | > 100 |  | > 100 |  | > 100 |
